Measured values published in PubChem BioAssay (NCI).
Values joined by “and” are separate entries in the source; they are usually repeats but may differ in a detail not shown here. Equal values may be shown once.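 1) Cells in 96-well plates. 2) Compound, 48 h, 5 concentrations. 3) Linear interpolation between surrounding doses. 4) Unreached endpoint = highest concentration. GI50 marks 50% less growth. TGI is the concentration that stops growth completely.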

Experiments:
Assay in all cases: inhibition of tumour cell growth, NCI panel, 48 h
A498 renal = test system: A498 renal
COLO 205 colon = test system: COLO 205 colon
HCT-15 colon = test system: HCT-15 colon
IGROV1 ovarian = test system: IGROV1 ovarian
LOX IMVI melanoma = test system: LOX IMVI melanoma
RXF 393 renal = test system: RXF 393 renal
SF-268 CNS = test system: SF-268 CNS
SK-MEL-5 melanoma = test system: SK-MEL-5 melanoma
UACC-62 melanoma = test system: UACC-62 melanoma

Row | Compound | GI50 (A498 renal) [µM] | TGI (A498 renal) | GI50 (COLO 205 colon) [µM] | TGI (COLO 205 colon) | GI50 (HCT-15 colon) [µM] | TGI (HCT-15 colon) | GI50 (IGROV1 ovarian) [µM] | TGI (IGROV1 ovarian) | GI50 (LOX IMVI melanoma) [µM] | TGI (LOX IMVI melanoma) | GI50 (RXF 393 renal) [µM] | TGI (RXF 393 renal) | GI50 (SF-268 CNS) [µM] | TGI (SF-268 CNS) | GI50 (SK-MEL-5 melanoma) [µM] | TGI (SK-MEL-5 melanoma) | GI50 (UACC-62 melanoma) [µM] | TGI (UACC-62 melanoma)
1 | N#C/C(=C\c1ccc(F)cc1)n1nc2cccc(F)c2n1 | 2.04 | 7.25 µM | 4.16 | > 100 µM | 2.58 | > 100 µM | 5.01 | > 100 µM | 2.92 | 9.76 µM | 2.72 | 27 µM | 4.99 | > 100 µM | 3.76 | > 100 µM | 3.3 | > 100 µM
2 | Cn1c2cc([N+](=O)[O-])ccc2c(=O)c2c(O)cc3c(c21)C=CC(C)(C)O3 |  | > 100 µM |  | > 100 µM |  | > 100 µM |  | > 100 µM |  | > 100 µM |  | 74.5 µM |  | > 100 µM |  | > 100 µM |  | > 100 µM
3 | O=C([O-])CCc1ccccc1.O=C([O-])CCc1ccccc1.O=C([O-])CCc1ccccc1.O=C([O-])CCc1ccccc1.[Mo+2].[Mo+2] |  |  | > 100 | > 100 µM | > 100 | > 100 µM | > 100 | > 100 µM | > 100 | > 100 µM | > 100 | > 100 µM | > 100 | > 100 µM | > 100 | > 100 µM | > 100 | > 100 µM
4 | CCC1c2cc3n(c(=O)c2COC1O)Cc1c-3nc2ccccc2c1Cl (stereo not drawn) |  | > 100 µM |  | > 100 µM |  | > 100 µM |  | > 100 µM |  | > 100 µM |  | > 100 µM |  | > 100 µM |  | > 100 µM |  | > 100 µM
5 | C=C(COC(C)=O)CC(/C=C(\C)CC/C=C(\C)CO)OC(C)=O (stereo not drawn) |  | > 100 µM |  | > 100 µM |  | > 100 µM |  | > 100 µM |  | > 100 µM |  | > 100 µM |  | > 100 µM |  | > 100 µM |  | > 100 µM
6 | N#Cc1c(-c2ccccc2)cc(-c2cccs2)c(C#N)c1N |  | > 100 µM |  |  |  | > 100 µM |  |  |  | > 100 µM |  |  |  | > 100 µM |  | > 100 µM |  | 
7 | NC(CO)c1ccc(OCc2ccccc2)cc1 (stereo not drawn) |  | > 100 µM |  | > 100 µM |  | > 100 µM |  | > 100 µM |  | > 100 µM |  | > 100 µM |  | > 100 µM |  | > 100 µM |  | > 100 µM
8 | COC(=O)c1nc(C(=O)OC)c2c([nH]c3ccccc32)c1C(=O)OC |  | > 100 µM |  | > 100 µM |  | > 100 µM |  | > 100 µM |  | > 100 µM |  | > 100 µM |  |  |  | 95.1 µM |  | > 100 µM
9 | CC(=O)OCC1OC([Se-])C(OC(C)=O)C(OC(C)=O)C1OC(C)=O.N#CCC[PH+](CCC#N)CCC#N.[Au+] (stereo not drawn) |  |  | 17.6 | > 100 µM | 3.92 | 23.4 µM | 24.5 | > 81.6 µM | 4.34 | 28.9 µM | 3.14 | > 100 µM | 10.1 | > 100 µM | 3.43 | 15.9 µM | 5.12 | 30.6 µM
10 | CCc1cccc(CC)c1NC(=O)CC1SC(N)=NC1=O (stereo not drawn) |  | > 100 µM |  | > 100 µM |  | > 100 µM |  | > 100 µM |  | > 100 µM |  | > 100 µM |  | > 100 µM |  | > 100 µM |  | > 100 µM
11 | C=CCC12CCC(=O)[C@@]1(C)CC=C(O)C2=O (stereo partly drawn) |  | > 100 µM |  | > 100 µM |  | > 100 µM |  | > 100 µM |  | > 100 µM |  | > 100 µM |  | > 100 µM |  | > 100 µM |  | > 100 µM
12 | O=c1c(O)cc2c(O)oc3c(=O)c(O)c(O)c4c(O)oc1c2c43 |  | > 100 µM |  | > 100 µM |  | > 100 µM |  | > 100 µM |  | 34.1 µM |  | > 100 µM |  | > 100 µM |  | > 100 µM |  | > 100 µM
13 | COc1cc(C2C(C(=O)O)=C(COC(C)=O)Oc3cc4c(cc32)OCO4)cc(OC)c1OC(C)=O (stereo not drawn) |  |  |  | > 100 µM |  | > 100 µM |  | > 100 µM |  | > 100 µM |  | > 100 µM |  |  |  | > 100 µM |  | > 100 µM
14 | N#Cc1c2ccccc2c2nnc3ccc(C(F)(F)F)cc3n12 |  |  | 39.4 | > 100 µM | 40.6 | > 100 µM | 47.9 | > 100 µM | 21.6 | 94.5 µM | 23.4 | 80.3 µM | 80.7 | > 100 µM | 16.1 | 39.8 µM | 66.8 | > 100 µM
15 | Cc1cc2c(cc1C)[n+](=O)c(C(=O)CC(=O)C(=O)Nc1ccccc1C(C)C)c(C)n2[O-] |  | > 100 µM |  | > 100 µM |  | > 100 µM |  | > 100 µM |  | > 100 µM |  | > 100 µM |  | > 100 µM |  | > 100 µM |  | > 100 µM
16 | C#CCn1c(=O)c2cccnc2n(CC#C)c1=O |  |  |  | > 100 µM |  | > 100 µM |  |  |  | > 100 µM |  | > 100 µM |  | > 100 µM |  | > 100 µM |  | 

Row | Compound | GI50 (A498 renal) [µM] | TGI (A498 renal) | GI50 (COLO 205 colon) [µM] | TGI (COLO 205 colon) | GI50 (HCT-15 colon) [µM] | TGI (HCT-15 colon) | GI50 (IGROV1 ovarian) [µM] | TGI (IGROV1 ovarian) | GI50 (LOX IMVI melanoma) [µM] | TGI (LOX IMVI melanoma) | GI50 (RXF 393 renal) [µM] | TGI (RXF 393 renal) | GI50 (SF-268 CNS) [µM] | TGI (SF-268 CNS) | GI50 (SK-MEL-5 melanoma) [µM] | TGI (SK-MEL-5 melanoma) | GI50 (UACC-62 melanoma) [µM] | TGI (UACC-62 melanoma)
17 | C=C1C(=O)c2cc3c(cc2C(c2cc(OC)c(OC)c(OC)c2)[C@@H]1C(=O)O)OCO3 (stereo partly drawn) |  | > 100 µM |  | > 100 µM |  | > 100 µM |  | > 100 µM |  | > 100 µM |  | > 100 µM |  |  |  | > 100 µM |  | > 100 µM
18 | N#CC(/C(=N/NC(N)=S)C(=O)Nc1cccc(Cl)c1)c1ccccc1 (stereo not drawn) |  | > 100 µM |  | > 100 µM |  | > 100 µM |  | > 100 µM |  |  |  |  |  | > 100 µM |  | > 100 µM |  | > 100 µM
19 | COC1=CC(=O)OC(/C=C(C)/C=C/C2=C(C)CCCC2(C)C)C1 (stereo not drawn) |  | > 100 µM |  |  |  |  |  | > 100 µM |  |  |  | > 100 µM |  | > 100 µM |  | > 100 µM |  | > 100 µM
20 | CCc1nc2ccccc2c(=O)n1/N=C(\N=Nc1ccc(Cl)cc1)c1ccccc1 |  | > 100 µM |  | > 100 µM |  | > 100 µM |  | > 100 µM |  | 40.5 µM |  | > 75.8 µM |  | 95.3 µM |  | 44.6 µM |  | > 100 µM
21 | Cc1ccc(NC(=O)/C(=N\NC(N)=S)C(C#N)c2ccccc2C)cc1C (stereo not drawn) |  | > 100 µM |  | > 100 µM |  | > 100 µM |  | > 100 µM |  |  |  |  |  | > 100 µM |  | > 100 µM |  | > 100 µM
22 | CCOC(=O)Nc1ccc2c(c1)N(C(=O)CCN(CC)CC)c1ccccc1S2 | 33.3 | 58.9 µM and 99.7 µM | 47 | 47.7 µM and 120 µM | 35.7 | > 79.5 µM and 99.4 µM | 64 | > 94.1 µM and 138 µM |  | 37.6 µM and 67 µM | 15.4 | 64.1 µM and 59.5 µM | 55 | > 74.6 µM and 128 µM | 36.1 | 34.3 µM and 100 µM | 46.7 | 52.8 µM and 112 µM
23 | O=C1C(=C([O-])c2ccccc2)C(=O)c2ccccc21.O=C1C(=C([O-])c2ccccc2)C(=O)c2ccccc21.[Co+2] | > 100 | > 100 µM | 38.5 | > 100 µM |  |  | > 100 | > 100 µM | 82.1 | > 100 µM |  |  | > 100 | > 100 µM | > 100 | > 100 µM | 57.1 | > 100 µM
24 | OCCCc1cnco1 |  | > 100 µM |  | > 100 µM |  | > 100 µM |  | > 100 µM |  | > 100 µM |  | > 100 µM |  | > 100 µM |  | > 100 µM |  | > 100 µM
25 | N#Cc1c2ccccc2c2nnc3ccccc3n12 |  |  | 9.32 | > 100 µM | 21.5 | > 100 µM | 19.3 | 92.2 µM | 6.47 | 25.2 µM |  |  | 50 | > 100 µM |  |  |  | 
26 | c1ccc(-c2cn(-c3ccccc3)c(-c3ccccc3)n2)cc1 | 15.4 | 28.8 µM | 10.9 | 23.4 µM | 3.84 | 17.8 µM | 11.9 | 25.2 µM | 1.95 | 4.29 µM | 17.5 | 33.9 µM | 14.8 | 29.5 µM | 14.9 | 28.3 µM | 15.3 | 29.8 µM
27 | Fc1ccc(C2SCc3nc4ccccc4n32)cc1F (stereo not drawn) |  | > 100 µM |  | 90.3 µM |  | > 100 µM |  | > 100 µM |  |  |  | 80 µM |  | > 100 µM |  | 34.3 µM |  | > 100 µM
28 | CC(=O)CC(=O)NC=O |  | > 100 µM |  | > 100 µM |  | > 100 µM |  | > 100 µM |  |  |  | > 100 µM |  | > 100 µM |  | > 100 µM |  | > 100 µM
29 | NC(=S)N/N=C(\CCC(=O)Nc1ccccc1[N+](=O)[O-])CC(=O)c1ccco1 |  | > 100 µM |  | > 100 µM |  | > 100 µM |  | > 100 µM |  | > 100 µM |  | > 100 µM |  | > 100 µM |  | > 100 µM |  | > 100 µM
30 | O=C(O)CCC1CCc2cccc(OCC(=O)O)c2C1=O (stereo not drawn) |  | > 100 µM |  | > 100 µM |  | > 100 µM |  | > 100 µM |  | > 100 µM |  | > 100 µM |  |  |  | > 100 µM |  | > 100 µM
31 | CC(=O)N(CCN1C(=O)c2ccccc2C1=O)CCN1C(=O)c2ccccc2C1=O |  | > 100 µM |  | > 100 µM |  | > 100 µM |  |  |  | > 100 µM |  | > 100 µM |  | > 100 µM |  | > 100 µM |  | > 100 µM
32 | O=C(N/C=C/C=C/Sc1ccccc1)OCc1ccccc1 |  |  |  | 31.6 µM |  | 36.2 µM |  | 42.1 µM |  | 32 µM |  | 35.6 µM |  | 34.2 µM |  | 31.6 µM |  | 29.9 µM
